Bridge positions count the residues as written; N and C are the ends. Square brackets hold non-standard residues; d marks the D form. Ends that are not written are not given here. Peptide text beside a SMILES is read from it. R8 = C=CCCCCCC[C@@](C)(N)C(=O)O; S5 = C=CCCC[C@](C)(N)C(=O)O
Key:
[1] = circular dichroism; conditions: 5 mM sodium phosphate; pH 7.5; 20 °C; 7.5 uM
[2] = tested on: sheep red blood cells; conditions: sheep RBCs in DMEM, 1 h, 32 °C, OD405; for hemolysis at 50 µM: relative to 1% Triton-X100, negative control polymyxin B nonapeptide
Method: Defibrinated sheep blood was purchased from BioTrading (LOT 21118SG66, Mijdrecht, The Netherlands) and kept at 4 °C. As previously described by Phan et al., red blood cells (RBCs) were pelleted by centrifugation at 600× g for 7 min at 4 °C and gently resuspended in phenol red-free Dulbecco’s Modified Eagle Medium (DMEM, Gibco 21063-029, ThermoFisher Scientific, Waltham MA, United States). This was repeated five times until the supernatant appeared colorless. In the meantime, 10-fold dilution series of the peptides at 50 μM, 5 μM and 0.5 μM in 50 µl DMEM, 1% DMSO were made in polypropylene microtiter plates (Ratiolab, L6018123, Dreieich, Germany). Triton-X100 (1%, Sigma-Aldrich T-8787) and DMSO (10%, Sigma-Aldrich D-8418) were used as positive and negative controls, respectively. Polymyxin B (Sigma-Aldrich, p-1411) and polymyxin B nonapeptide (Sigma-Aldrich, p-2076) were used as reference lytic and non-lytic peptides. Then, 50 µL of RBCs was added to each well. The plate was sealed and incubated at 5% CO2 for one hour at 32 °C, after which the plate was centrifuged at 610× g for 5 min at room temperature. Next, 70 µL supernatant was removed and transferred to a flat-bottomed polystyrene microtiter plate (Costar, REF3779) and the OD405, as a measure of released hemoglobin, was determined using a microplate reader (Synergy H1 Multi-Mode Reader or Synergy HTX Multi-Mode Reader, BioTek). Percentage of hemolysis was calculated using the following equation: (2) % hemolysis=(absorbance test sample)-(absorbance diluent)/(absorbance positive control)-(absorbance diluent)

[3] = tested on: A. baumannii 1757; assay: MIC / checkerboard synergy assay (also with added LPS); assay type: cell-based, Acinetobacter baumannii; conditions: mean ± SD; for MIC (compound alone): LB broth, MIC = 90% of growth prevented, OD600 over 12 h
Method: (§1) Minimum inhibitory concentrations of the peptides and antibiotics were determined according to the protocol described by Wiegand et al.. Briefly, two-fold dilution series of cationic peptides in 50 µL volume of LB broth containing 2% DMSO were made in polypropylene 96-well microtiter plates (Ratiolab, L6018123, Dreieich, Germany). The optical density at 600 nm (OD600) of growing bacterial cultures was followed, and at mid-log-phase (OD600 ~0.4–0.5) cultures were diluted to OD600 0.02 and 50 µL was added to the wells, resulting in a total volume of 100 µl, an OD600 of ~0.01 and a DMSO concentration of 1%. An OD600 of ~0.01 accounted for approximately 3 × 10^8 colony forming units per mL (CFU/mL) for A. baumannii, 1 × 10^7 CFU/mL for E. coli and 5 × 10^7 CFU/mL for K. pneumoniae as determined by plate counting.
(§2) In a similar manner, two-fold dilution series of antibiotics were made in polystyrene microtiter plates (Costar, REF3779, Corning NY, United States) in 70 µL volume of LB broth. Then, 50 µL of the antibiotic series was transferred to the peptide containing polypropylene plate, resulting in a checkerboard titration of a peptide on the vertical axis and an antibiotic on the horizontal axis. To some checkerboard assays 15 µg/mL isolated smooth (sm) LPS (from E. coli O55:B5, Sigma-Aldrich, L2880), rough (Ra) LPS (from E. coli EH100, Sigma-Aldrich, L9641) or deep rough (Rd) LPS (from E. coli F583, Sigma-Aldrich, L6893) LPS was added to the LB broth. Mid-log phase cultures were diluted to OD600 0.1 and 10 µL culture was added to each well of the microtiter plate, resulting in a total volume of 110 µL and an OD600 of ~0.01 (~3 × 10^8 CFU/mL), and the OD600 was measured every 15 min for 12 h using the microplate reader. First, the MIC values of the antibiotics alone and the MIC values of the peptides alone were determined as described previously. Similarly, the MIC values of the antibiotics in combination with the different peptides and the MIC values of the peptides in combination with the antibiotics were determined (the fractional inhibitory concentrations (FIC)). […] An FICindex between 0.5 and 1 was considered to be an additive effect.

[4] = tested on: zebrafish larvae; assay: Toxicity in zebrafish larvae (survival after caudal vein injection); conditions: survival of uninfected larvae vs vehicle (50% DMSO), five days
Method: Transparent Casper zebrafish (Danio rerio) larvae were infected and treated according to protocols described by Van der Sar et al. and Bernard et al. [43, 44]. In short, zebrafish larvae collected from a laboratory-breeding colony kept at 24 °C and a 12:12 h dark/light regime. Larvae were selected based on morphology according to hours post fertilization (hpf) and kept at 28 °C. All protocols followed the international guidelines on the protection of animals used for scientific purposes specified by the EU Directive 2010/63/EU, which allows zebrafish larvae to be used up to the moment of free-living (5–7 dpf). Larvae were dechorionated at 28 hpf and anaesthetized in 0.2% tricaine methanesulfonate (MS222, Fluka A-5040). Larvae were individually infected with 1 nL, containing approximately 100–150 CFU (1–1.5 CFU/mL), of Gram-negative bacteria via microinjection of the caudal vein as described previously [33]. One hour post infection, larvae were treated with cationic (stapled) peptides, antibiotics or a combination of the two via another microinjection of 1 nL in the caudal vein. To correct dilution of the treatment upon injection in the vein (1 nL in 250 nL zebrafish larvae volume), treatments were diluted in 0.1% phenol red (Sigma-Aldrich, p-0290) in phosphate buffered saline (PBS) to 250 times the concentration as tested in vitro. Zebrafish larvae were kept at 30 °C throughout the experiment and survival of the larvae, based on heartbeat, was determined every 24 h for 5 days.

[5] = tested on: K. pneumoniae 821; assay: MIC / checkerboard synergy assay; assay type: cell-based, Klebsiella pneumoniae; conditions: compound alone; LB broth, MIC = 90% of growth prevented, OD600 over 12 h; mean ± SD
Method: as §1, §2

[6] = tested on: K. pneumoniae 94; assay: MIC / checkerboard synergy assay; assay type: cell-based, Klebsiella pneumoniae; conditions: compound alone; LB broth, MIC = 90% of growth prevented, OD600 over 12 h; mean ± SD
Method: as §1, §2

[7] = tested on: K. pneumoniae 613; assay: MIC / checkerboard synergy assay; assay type: cell-based, Klebsiella pneumoniae; conditions: compound alone; LB broth, MIC = 90% of growth prevented, OD600 over 12 h; mean ± SD
Method: as §1, §2

[8] = tested on: A. baumannii 2196; assay: MIC / checkerboard synergy assay; assay type: cell-based, Acinetobacter baumannii; conditions: compound alone; LB broth, MIC = 90% of growth prevented, OD600 over 12 h; mean ± SD
Method: as §1, §2

[9] = tested on: A. baumannii 1681; assay: MIC / checkerboard synergy assay; assay type: cell-based, Acinetobacter baumannii; conditions: compound alone; LB broth, MIC = 90% of growth prevented, OD600 over 12 h; mean ± SD
Method: as §1, §2

## CC(C)C[C@H](NC(=O)[C@H](Cc1c[nH]c2ccccc12)NC(=O)[C@H](CCCNC(=N)N)NC(=O)[C@H](CC(C)C)NC(=O)[C@]1(C)CCCC=CCCC[C@](C)(NC(=O)[C@H](CCCNC(=N)N)NC(=O)[C@@H](N)CCCNC(=N)N)C(=O)N[C@@H](Cc2ccccc2)C(=O)N[C@@H](CCCNC(=N)N)C(=O)N[C@@H](CCCNC(=N)N)C(=O)N1)C(N)=O [Peptide L6S1] (H-RR[S5]FRR[S5]LRWL-NH2; staple 3-7)
[1]
  helicity: 28%
[2]
  hemolysis at 50 µM: significantly more hemolytic to the RBCs than the negative control
[3]
  MIC (compound alone): 1.80 ± 2.68 µM
[4]
  Log2FoldChange compared to vehicle injected: 0.04

## CC[C@H](C)[C@@H]1NC(=O)[C@H](CCCNC(=N)N)NC(=O)[C@H](CCCNC(=N)N)NC(=O)[C@](C)(NC(=O)[C@H](CC(C)C)NC(=O)[C@H](CCCNC(=N)N)NC(=O)[C@@H](N)CCCNC(=N)N)CCCCCCC=CCCC[C@@](C)(C(N)=O)NC(=O)[C@H](Cc2c[nH]c3ccccc23)NC(=O)[C@H](CCCNC(=N)N)NC(=O)[C@H](CC(C)C)NC1=O [Peptide L6S3] (H-RRL[R8]RRILRW[S5]-NH2; staple 4-11)
[1]
  helicity: 23%
[2]
  hemolysis at 50 µM: did not cause hemolysis
[3]
  MIC (compound alone): 1.47 ± 0.48 µM
[4]
  Log2FoldChange compared to vehicle injected: -0.40

## CC(C)C[C@H](NC(=O)[C@H](Cc1c[nH]c2ccccc12)NC(=O)[C@H](CCCCN)NC(=O)[C@H](CCCCN)NC(=O)[C@]1(C)CCCC=CCCC[C@](C)(NC(=O)[C@H](CCCNC(=N)N)NC(=O)[C@@H](N)CCCCN)C(=O)N[C@@H](C(C)C)C(=O)N[C@@H](CCC(N)=O)C(=O)N[C@@H](CCCNC(=N)N)C(=O)N1)C(=O)N[C@@H](CCCNC(=N)N)C(N)=O [Peptide L8S1] (H-KR[S5]VQR[S5]KKWLR-NH2; staple 3-7)
[1]
  helicity: 49%
[2]
  hemolysis at 50 µM: did not cause hemolysis
[3]
  MIC (compound alone): 12.76 ± 8.91 µM
[4]
  Log2FoldChange compared to vehicle injected: -0.45

## CC[C@H](C)[C@H](NC(=O)[C@H](CCCNC(=N)N)NC(=O)[C@@H](N)CCCCN)C(=O)N[C@H](C(=O)N[C@@H](CCC(N)=O)C(=O)N[C@@H](CCCNC(=N)N)C(=O)N[C@@]1(C)CCCC=CCCC[C@@](C)(C(=O)N[C@@H](CCCNC(=N)N)C(N)=O)NC(=O)[C@H](Cc2c[nH]c3ccccc23)NC(=O)[C@H](CCCCN)NC(=O)[C@H](CCCCN)NC1=O)C(C)C [Peptide L8S2] (H-KRIVQR[S5]KKW[S5]R-NH2; staple 7-11)
[1]
  helicity: 25%
[2]
  hemolysis at 50 µM: did not cause hemolysis
[3]
  MIC (compound alone): 8.69 ± 4.29 µM
[4]
  Log2FoldChange compared to vehicle injected: 0.11

## KRIVQRIKKWLR-NH2 [Peptide L8]
[5]
  MIC (compound alone): 43,37±28,38 µM
[6]
  MIC (compound alone): 165,45±1,91 µM
[7]
  MIC (compound alone): 23,74±29,65 µM
[1]
  helicity: 16%
[8]
  MIC (compound alone): 8,54±5,31 µM
[9]
  MIC (compound alone): 5,85±0,47 µM
[2]; 0.5, 5 and 50 µM
  hemolysis in the concentration range tested (in words): did not cause hemolysis
[3]; LB medium with soluble deep rough LPS 15 µg/ml
  MIC, + Rd-LPS (F583): 10.83 ± 8.12 µM
[3]; LB medium with soluble smooth LPS 15 µg/ml
  MIC, + Sm-LPS (055:B5): 0.53 ± 0.59 µM
[3]; LB medium without supplement (Table S4)
  MIC, No supplement: 8.78 ± 11.15 µM
[3]
  MIC (compound alone): 2.53 ± 1.02 µM
[4]
  Log2FoldChange compared to vehicle injected: -0.63

— publication PMC8868297, “Stapling of Peptides Potentiates the Antibiotic Treatment of Acinetobacter baumannii In Vivo” (Antibiotics, 2022)
